Experimental data published in the supplement of paper PMC6411743.

Compound: Nc1ncnc2c1ncn2[C@@H]1O[C@H](COP(=O)(O)OP(=O)(O)OP(=O)(O)O)[C@@H](O)[C@H]1O [adenosine triphosphate]
Assay: pEC50 of ATP-induced change in protein thermal stability (2D-TPP)
How it was run: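 In three independent experiments, Jurkat crude lysate received five concentrations including vehicle for 10 min at room temperature before a 3 min heating step at 12 temperatures (42–63.9 °C). NP40 and benzonase were then added for 60 min at 4 °C, and soluble protein after ultracentrifugation was read out by TMT LC-MS/MS as median-normalised fold changes against vehicle at each temperature. Dose-response fits per replicate over adjacent temperature pairs yielded pEC50, with hits called by permutation-based false discovery rate control.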
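Note: lysate dosed with Na-ATP at 0 0.005 0.05 0.5 and 2 mM.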

Chain of UniProt Q12931 (Q12931 whole entry): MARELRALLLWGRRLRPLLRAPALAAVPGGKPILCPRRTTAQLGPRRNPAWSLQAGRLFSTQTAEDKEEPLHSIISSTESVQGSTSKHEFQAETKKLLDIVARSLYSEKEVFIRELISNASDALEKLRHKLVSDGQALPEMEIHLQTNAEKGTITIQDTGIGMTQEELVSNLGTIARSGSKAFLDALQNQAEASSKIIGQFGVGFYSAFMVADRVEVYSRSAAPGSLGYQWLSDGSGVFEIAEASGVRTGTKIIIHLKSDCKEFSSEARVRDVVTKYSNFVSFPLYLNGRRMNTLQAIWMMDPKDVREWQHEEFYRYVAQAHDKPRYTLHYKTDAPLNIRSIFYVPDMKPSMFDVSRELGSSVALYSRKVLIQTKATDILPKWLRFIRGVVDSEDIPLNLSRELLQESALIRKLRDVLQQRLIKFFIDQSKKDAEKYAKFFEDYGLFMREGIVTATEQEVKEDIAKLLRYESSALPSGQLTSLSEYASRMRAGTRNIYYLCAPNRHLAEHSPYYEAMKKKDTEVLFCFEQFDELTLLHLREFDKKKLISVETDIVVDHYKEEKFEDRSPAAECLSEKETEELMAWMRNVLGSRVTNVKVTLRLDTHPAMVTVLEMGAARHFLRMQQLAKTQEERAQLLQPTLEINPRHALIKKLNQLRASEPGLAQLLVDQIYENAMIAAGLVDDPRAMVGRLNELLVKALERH
Chain of UniProt Q92615 (Q92615 whole entry): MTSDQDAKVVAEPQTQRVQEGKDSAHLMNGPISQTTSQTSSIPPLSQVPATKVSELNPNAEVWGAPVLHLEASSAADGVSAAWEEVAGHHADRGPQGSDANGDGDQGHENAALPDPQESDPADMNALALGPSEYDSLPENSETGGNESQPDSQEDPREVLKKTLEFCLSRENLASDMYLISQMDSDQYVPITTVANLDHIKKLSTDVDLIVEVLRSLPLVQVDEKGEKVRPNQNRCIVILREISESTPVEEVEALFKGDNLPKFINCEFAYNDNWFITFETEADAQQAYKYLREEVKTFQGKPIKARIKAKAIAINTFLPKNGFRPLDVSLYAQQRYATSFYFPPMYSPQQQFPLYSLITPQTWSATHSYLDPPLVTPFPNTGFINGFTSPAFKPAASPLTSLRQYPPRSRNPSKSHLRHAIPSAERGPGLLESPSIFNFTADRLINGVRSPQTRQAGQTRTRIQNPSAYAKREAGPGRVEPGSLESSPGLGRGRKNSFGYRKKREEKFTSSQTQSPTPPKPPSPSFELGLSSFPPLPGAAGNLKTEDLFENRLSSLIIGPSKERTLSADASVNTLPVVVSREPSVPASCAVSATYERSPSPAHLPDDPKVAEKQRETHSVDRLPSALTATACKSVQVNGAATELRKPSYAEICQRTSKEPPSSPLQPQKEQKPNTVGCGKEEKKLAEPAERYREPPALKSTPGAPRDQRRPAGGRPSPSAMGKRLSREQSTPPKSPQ
Chain of UniProt P07954 (P07954 whole entry): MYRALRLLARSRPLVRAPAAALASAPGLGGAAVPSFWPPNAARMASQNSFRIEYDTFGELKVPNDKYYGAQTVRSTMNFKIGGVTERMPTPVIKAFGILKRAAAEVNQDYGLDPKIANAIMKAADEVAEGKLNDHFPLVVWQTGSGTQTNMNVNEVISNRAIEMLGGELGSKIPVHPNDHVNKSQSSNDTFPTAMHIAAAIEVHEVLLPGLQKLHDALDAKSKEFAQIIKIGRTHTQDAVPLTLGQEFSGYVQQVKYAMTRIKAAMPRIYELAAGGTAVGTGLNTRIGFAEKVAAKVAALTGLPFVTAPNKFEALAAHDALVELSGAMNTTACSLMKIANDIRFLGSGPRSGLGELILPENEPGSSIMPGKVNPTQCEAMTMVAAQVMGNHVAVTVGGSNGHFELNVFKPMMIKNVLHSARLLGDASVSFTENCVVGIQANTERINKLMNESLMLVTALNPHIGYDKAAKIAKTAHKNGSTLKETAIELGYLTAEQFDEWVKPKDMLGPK
Chain of UniProt P31321 (P31321 whole entry): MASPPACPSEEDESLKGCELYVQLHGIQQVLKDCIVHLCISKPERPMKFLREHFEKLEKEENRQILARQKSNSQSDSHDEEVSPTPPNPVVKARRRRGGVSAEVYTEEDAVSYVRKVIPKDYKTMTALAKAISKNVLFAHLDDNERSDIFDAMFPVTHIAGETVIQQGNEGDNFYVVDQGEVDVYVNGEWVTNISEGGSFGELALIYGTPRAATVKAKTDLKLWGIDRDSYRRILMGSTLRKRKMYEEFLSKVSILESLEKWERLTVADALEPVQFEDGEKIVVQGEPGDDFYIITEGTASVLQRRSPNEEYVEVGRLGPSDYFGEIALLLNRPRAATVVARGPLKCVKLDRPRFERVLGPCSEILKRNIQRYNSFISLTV
Chain of UniProt Q02252 (Q02252 whole entry): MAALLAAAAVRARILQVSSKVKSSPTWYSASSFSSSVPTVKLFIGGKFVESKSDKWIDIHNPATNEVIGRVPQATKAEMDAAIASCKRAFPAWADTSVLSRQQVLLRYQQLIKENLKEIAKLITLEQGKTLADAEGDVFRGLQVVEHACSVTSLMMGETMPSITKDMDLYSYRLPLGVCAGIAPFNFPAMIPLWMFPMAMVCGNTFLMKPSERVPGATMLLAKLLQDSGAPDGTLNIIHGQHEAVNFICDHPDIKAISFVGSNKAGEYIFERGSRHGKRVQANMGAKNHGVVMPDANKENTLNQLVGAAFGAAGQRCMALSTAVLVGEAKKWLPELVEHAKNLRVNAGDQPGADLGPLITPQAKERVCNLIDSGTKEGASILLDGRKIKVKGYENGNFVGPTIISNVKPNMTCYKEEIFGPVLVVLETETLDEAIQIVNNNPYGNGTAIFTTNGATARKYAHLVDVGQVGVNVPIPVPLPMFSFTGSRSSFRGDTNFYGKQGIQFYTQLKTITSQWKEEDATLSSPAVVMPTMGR
Chain of UniProt Q9UQR1 (Q9UQR1 whole entry): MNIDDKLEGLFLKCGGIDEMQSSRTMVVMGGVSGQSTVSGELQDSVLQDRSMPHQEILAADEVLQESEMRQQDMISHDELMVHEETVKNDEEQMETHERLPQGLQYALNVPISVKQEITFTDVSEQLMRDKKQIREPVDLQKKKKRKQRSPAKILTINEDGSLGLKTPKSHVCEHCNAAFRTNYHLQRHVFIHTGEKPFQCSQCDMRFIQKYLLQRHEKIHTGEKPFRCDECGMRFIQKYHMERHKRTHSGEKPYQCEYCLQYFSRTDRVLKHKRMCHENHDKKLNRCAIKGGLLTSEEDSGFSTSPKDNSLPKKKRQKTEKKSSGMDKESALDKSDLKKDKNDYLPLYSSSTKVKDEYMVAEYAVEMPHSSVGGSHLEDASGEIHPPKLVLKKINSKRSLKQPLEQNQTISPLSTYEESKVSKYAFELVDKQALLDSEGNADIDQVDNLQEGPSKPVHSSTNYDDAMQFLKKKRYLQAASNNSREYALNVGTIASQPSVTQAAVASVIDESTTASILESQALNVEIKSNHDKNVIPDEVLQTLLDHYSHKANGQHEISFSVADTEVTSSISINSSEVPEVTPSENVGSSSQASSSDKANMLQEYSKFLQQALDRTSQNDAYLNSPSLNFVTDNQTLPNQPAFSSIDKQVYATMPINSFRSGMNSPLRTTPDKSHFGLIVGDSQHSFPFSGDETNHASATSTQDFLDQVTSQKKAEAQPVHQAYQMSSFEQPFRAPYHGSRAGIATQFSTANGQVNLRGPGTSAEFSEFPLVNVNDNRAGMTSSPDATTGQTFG
Chain of UniProt Q9H2U1 (Q9H2U1 whole entry): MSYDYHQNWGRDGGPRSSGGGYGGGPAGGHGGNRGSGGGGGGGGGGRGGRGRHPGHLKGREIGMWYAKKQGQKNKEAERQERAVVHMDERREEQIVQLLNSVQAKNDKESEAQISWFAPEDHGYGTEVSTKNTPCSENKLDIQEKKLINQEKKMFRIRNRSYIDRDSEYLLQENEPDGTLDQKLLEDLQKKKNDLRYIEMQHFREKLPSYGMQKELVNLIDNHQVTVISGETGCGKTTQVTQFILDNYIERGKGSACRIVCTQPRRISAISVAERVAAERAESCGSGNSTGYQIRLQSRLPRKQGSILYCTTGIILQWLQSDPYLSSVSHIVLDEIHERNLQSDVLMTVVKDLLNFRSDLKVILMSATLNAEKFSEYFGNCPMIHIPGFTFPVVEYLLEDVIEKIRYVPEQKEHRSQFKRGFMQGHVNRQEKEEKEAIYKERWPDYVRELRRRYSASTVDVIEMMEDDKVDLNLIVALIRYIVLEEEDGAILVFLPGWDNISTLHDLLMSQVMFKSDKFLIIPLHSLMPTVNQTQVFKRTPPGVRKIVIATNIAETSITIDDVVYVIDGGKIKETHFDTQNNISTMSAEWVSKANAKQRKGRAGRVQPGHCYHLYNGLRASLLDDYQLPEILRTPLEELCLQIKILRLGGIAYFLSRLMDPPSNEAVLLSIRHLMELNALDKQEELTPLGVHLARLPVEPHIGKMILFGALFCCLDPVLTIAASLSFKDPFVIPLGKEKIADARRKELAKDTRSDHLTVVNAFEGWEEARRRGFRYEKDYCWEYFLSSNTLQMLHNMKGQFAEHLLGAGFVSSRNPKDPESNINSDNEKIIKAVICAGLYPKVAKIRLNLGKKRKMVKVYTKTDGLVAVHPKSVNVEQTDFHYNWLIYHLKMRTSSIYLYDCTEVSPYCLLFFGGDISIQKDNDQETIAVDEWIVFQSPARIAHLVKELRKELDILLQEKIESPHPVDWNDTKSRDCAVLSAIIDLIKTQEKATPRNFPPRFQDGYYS
Chain of UniProt Q15717 (Q15717 whole entry): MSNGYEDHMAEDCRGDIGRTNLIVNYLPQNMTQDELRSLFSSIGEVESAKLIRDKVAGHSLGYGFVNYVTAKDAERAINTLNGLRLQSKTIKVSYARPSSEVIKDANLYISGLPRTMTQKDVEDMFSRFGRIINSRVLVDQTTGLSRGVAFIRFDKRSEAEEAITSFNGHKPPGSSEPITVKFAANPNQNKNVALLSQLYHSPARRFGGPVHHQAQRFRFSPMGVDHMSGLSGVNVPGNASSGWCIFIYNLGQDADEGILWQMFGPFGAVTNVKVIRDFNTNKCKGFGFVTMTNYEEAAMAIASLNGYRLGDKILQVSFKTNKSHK

| Target | pEC50 |
| --- | --- |
| ALDH6A1 (effect direction: stabilized) (UniProt Q02252) | 3.53 |
| TRAP1 (effect direction: stabilized) (UniProt Q12931) | 3.33 |
| KPNB1 (effect direction: stabilized) (UniProt Q14974) | 2.96 |
| ROCK1 (effect direction: stabilized) (UniProt Q13464) | 2.77 |
| GPD1L (effect direction: stabilized) (UniProt Q8N335) | 3.09 |
| SMARCC1 (effect direction: stabilized) (UniProt Q92922) | 3.43 |
| ATXN10 (effect direction: stabilized) (UniProt Q9UBB4) | < 2.7 |
| ASPSCR1 (effect direction: stabilized) (UniProt Q9BZE9) | 3.92 |
| GTF2B (effect direction: stabilized) (UniProt Q00403) | 3.26 |
| PPT1 (effect direction: stabilized) (UniProt P50897) | 3.3 |
| CMPK1 (effect direction: stabilized) (UniProt P30085) | 3.27 |
| H1FX (effect direction: destabilized) (UniProt Q92522) | < 2.7 |
| EEF1G (effect direction: stabilized) (UniProt P26641) | < 2.7 |
| UniProt Q15257 (effect direction: stabilized) | < 2.7 |
| RIOK1 (effect direction: stabilized) (UniProt Q9BRS2) | 3.11 |
| AGPAT5 (effect direction: stabilized) (UniProt Q9NUQ2) | 3.89 |
| UniProt Q92615 (effect direction: stabilized) | 3.16 |
| UniProt Q7Z2Z2 (effect direction: stabilized) | 2.78 |
| HSPA9 (effect direction: stabilized) (UniProt P38646) | 3.94 |
| PA2G4 (effect direction: destabilized) (UniProt Q9UQ80) | 3.17 |
| KATNA1 (effect direction: stabilized) (UniProt O75449) | 3.42 |
| PSMD11 (effect direction: stabilized) (UniProt O00231) | 4.08 |
| DLGAP5 (effect direction: destabilized) (UniProt Q15398) | 2.82 |

| Target | pEC50 |
| --- | --- |
| ACSL6 (effect direction: stabilized) (UniProt Q9UKU0) | 3.69 |
| NUP85 (effect direction: stabilized) (UniProt Q9BW27) | < 2.7 |
| HEATR3 (effect direction: stabilized) (UniProt Q7Z4Q2) | 2.83 |
| BICD2 (effect direction: stabilized) (UniProt Q8TD16) | < 2.7 |
| EIF4G2 (effect direction: stabilized) (UniProt P78344) | < 2.7 |
| DYRK1A (effect direction: stabilized) (UniProt Q13627) | 3.49 |
| ITPR2 (effect direction: stabilized) (UniProt Q14571) | 3.28 |
| ANXA6 (effect direction: stabilized) (UniProt P08133) | < 2.7 |
| EMG1 (effect direction: stabilized) (UniProt Q92979) | 5.25 |
| LARP7 (effect direction: stabilized) (UniProt Q4G0J3) | 3.03 |
| RASSF5 (effect direction: stabilized) (UniProt Q8WWW0) | 3.13 |
| PSMC4 (effect direction: stabilized) (UniProt P43686) | 4.09 |
| GLB1 (effect direction: stabilized) (UniProt P16278) | 3.35 |
| HUWE1 (effect direction: stabilized) (UniProt Q7Z6Z7) | < 2.7 |
| ARID1A (effect direction: stabilized) (UniProt O14497) | < 2.7 |
| SMC3 (effect direction: stabilized) (UniProt Q9UQE7) | 3.41 |
| PIP4K2A (effect direction: stabilized) (UniProt P48426) | 2.72 |
| PPM1H (effect direction: destabilized) (UniProt Q9ULR3) | < 2.7 |
| PSMD2 (effect direction: stabilized) (UniProt Q13200) | 3.96 |
| LRPPRC (effect direction: stabilized) (UniProt P42704) | 3.65 |
| RFX1 (effect direction: stabilized) (UniProt P22670) | < 2.7 |
| UniProt Q9HCP0 (effect direction: stabilized) | 3.72 |
| PHKG2 (effect direction: stabilized) (UniProt P15735) | 2.96 |

| Target | pEC50 |
| --- | --- |
| CNOT1 (effect direction: stabilized) (UniProt A5YKK6) | 3.41 |
| EIF2B2 (effect direction: stabilized) (UniProt P49770) | 2.83 |
| SARNP (effect direction: destabilized) (UniProt P82979) | 3.18 |
| RPL18 (effect direction: destabilized) (UniProt Q07020) | < 2.7 |
| UniProt O43847 (effect direction: stabilized) | < 2.7 |
| UniProt P78356 (effect direction: stabilized) | 2.83 |
| TUBA1C (effect direction: stabilized) (UniProt Q9BQE3) | 3.5 |
| CYB5R1 (effect direction: stabilized) (UniProt Q9UHQ9) | < 2.7 |
| HSD17B10 (effect direction: stabilized) (UniProt Q99714) | 3.24 |
| SRC (effect direction: stabilized) (UniProt P12931) | 3.37 |
| RSBN1L (effect direction: stabilized) (UniProt Q6PCB5) | 3.21 |
| PCYT2 (effect direction: stabilized) (UniProt Q99447) | < 2.7 |
| DDX56 (effect direction: stabilized) (UniProt Q9NY93) | 3.68 |
| TARDBP (effect direction: stabilized) (UniProt Q13148) | 3.21 |
| ATAD2B (effect direction: destabilized) (UniProt Q9ULI0) | 3.06 |
| NT5DC2 (effect direction: stabilized) (UniProt Q9H857) | < 2.7 |
| USP5 (effect direction: stabilized) (UniProt P45974) | < 2.7 |
| PDCD5 (effect direction: destabilized) (UniProt O14737) | 3.52 |
| PMS2 (effect direction: stabilized) (UniProt P54278) | 3.21 |
| HNRNPUL2 (effect direction: stabilized) (UniProt Q1KMD3) | 3.39 |
| PRKAR1B (effect direction: stabilized) (UniProt P31321) | 3.85 |
| PGM1 (effect direction: destabilized) (UniProt P36871) | < 2.7 |
| UBE2O (effect direction: stabilized) (UniProt Q9C0C9) | < 2.7 |

| Target | pEC50 |
| --- | --- |
| SFXN1 (effect direction: stabilized) (UniProt Q9H9B4) | 2.77 |
| NKTR (effect direction: stabilized) (UniProt P30414) | 3.22 |
| SNRPB (effect direction: destabilized) (UniProt P14678) | < 2.7 |
| PPM1B (effect direction: destabilized) (UniProt O75688) | 3.15 |
| UniProt P61956 (effect direction: destabilized) | 3.07 |
| ANXA5 (effect direction: stabilized) (UniProt P08758) | 2.79 |
| POLR2E (effect direction: destabilized) (UniProt P19388) | 3.45 |
| NUDT2 (effect direction: stabilized) (UniProt P50583) | 3.31 |
| UniProt P62753 (effect direction: destabilized) | 3.15 |
| PSMC2 (effect direction: stabilized) (UniProt P35998) | 4.28 |
| DHX36 (effect direction: stabilized) (UniProt Q9H2U1) | 3.99 |
| FH (effect direction: stabilized) (UniProt P07954) | 3.08 |
| ELAVL1 (effect direction: stabilized) (UniProt Q15717) | 3.02 |
| NUP210 (effect direction: stabilized) (UniProt Q8TEM1) | < 2.7 |
| BCL7A (effect direction: destabilized) (UniProt Q4VC05) | 3.03 |
| C1QBP (effect direction: stabilized) (UniProt Q07021) | < 2.7 |
| UniProt Q9P289 (effect direction: stabilized) | 3.21 |
| PRKAR2A (effect direction: stabilized) (UniProt P13861) | 4.03 |
| UniProt O94826 (effect direction: stabilized) | 3.14 |
| IPO5 (effect direction: stabilized) (UniProt O00410) | < 2.7 |
| UniProt O43929 (effect direction: stabilized) | 3.63 |
| KRI1 (effect direction: destabilized) (UniProt Q8N9T8) | 2.81 |
| ZNF148 (effect direction: stabilized) (UniProt Q9UQR1) | 2.88 |
